The source of these data is patent US8927504B2, “Combined use of dipeptidyl peptidase 4 inhibitor and sweetener” (Mitsubishi Tanabe Pharma Corporation, priority 2007, dated 2015).

One test concerns GLP-1. The conditions noted are these: Shima et al., Acta Endocrinologica 1990; cited from earlier work.
The subject of test [1] is active GLP-1 in plasma. The experiment in a line: GLP-1 secretion-stimulating action by combined use of DPP4 inhibitor and sweetener (3), Example 5. Format: in vivo, mouse. Conditions: C57BL/6J mice, mean ± SEM, n = 5. Here is the method: Purified water was administered orally (10 mL/kg) as a control.
D-mannitol (Wako Pure Chemical Industries, Ltd.) at 3 g/kg, melibiose (Wako Pure Chemical Industries, Ltd.) at 6 g/kg or acesulfame K (Wako Pure Chemical Industries, Ltd.) at 3 g/kg was used as sweetener and administered orally (10 mL/kg). Purified water was administered orally (10 mL/kg) as a control.

Test [2] in a line: Body weight-reducing test using DIO mice (2), Example 6. Conditions: for Body weight gain after 12 days / Body weight gain after 13 days: high fat diet-fed C57BL/6J mice, mean ± SEM, n = 9; for fat mass (g) as compared with the control group / lean mass (g) in comparison with the control group / body weights as compared with the control group: sweetener 5 w/w % combined with Compound A′ 10 mg/100 g in-feed; for fat mass (g) as compared with the control group / lean mass (g) in comparison with the control group: body composition 15 days after dosing; for body weights as compared with the control group: each of days 2 to 13 (or day 12) after dosing. Format: in vivo, mouse. Here is the method: Testing was carried out in the same manner as (1) of Example 3 above. High fat diet-fed, male C57BL/6J mice housed until age 14 to 22 weeks were used in the test.
The study animals were used in the test after first grouping according to body weight and blood sugar level.
The animals were administered test DPP4 inhibitor and test sweetener in-feed for up to 15 days.
Body weights and food intake were measured over time after the start of administration of the test substances. Testing and analysis of measurement results were carried out in the same manner as (1) of Example 3 above.
In addition, in the case body weight reducing effect was observed, body composition was measured in the same manner as (1) of Example 3 above.
D-mannitol (Wako Pure Chemical Industries, Ltd.), melibiose (Wako Pure Chemical Industries, Ltd.) or acesulfame K (Wako Pure Chemical Industries, Ltd.) was used as sweetener and each was administered in-feed at 5 w/w %. In addition, Compound A′ was administered as DPP4 inhibitor in-feed at 10 mg/100 g.
Body weight reducing-effect was tested for the cases of combined use of each of these sweeteners and DPP4 inhibitor in accordance with the method described in (1) above (n=9 animals per group).

The test system of test [3] is active GLP-1 in plasma. Put plainly: GLP-1 secretion-stimulating action by combined use of DPP4 inhibitor and sweetener (2), Example 4. The format is in vivo, mouse. Conditions: 1 hour after dosing, relative to 100 for Compound A′ and fructooligosaccharide 6 g/kg, C57BL/6J mice. How it is done:
Male C57BL/6J mice (Clea Japan, Inc.) (7-week-old at time of use) were used in the test.
These study animals were used in the test after first fasting starting on the night prior to the test and then grouping according to body weight. The animals were orally administered test DPP4 inhibitor (or purified water as a control) (10 mL/kg). At 30 minutes after administration, the animals were then orally administered (10 mL/kg) a solution of test sweetener (or purified water as a control) followed by collecting blood samples at 0, 30, 60, 180 and 300 minutes after administration. These samples were then measured for concentrations of active GLP-1 in plasma.
Measurement of plasma active GLP-1 concentrations and analysis and testing of the measurement results were carried out in the same manner as (1) of Example 1 above.
Fructooligosaccharide (Meiji Seika Kaisha Ltd.), kestose (Meiji Seika Kaisha Ltd., GF2), raffinose (Wako Pure Chemical Industries, Ltd.), melibiose (Wako Pure Chemical Industries, Ltd.), xylooligosaccharide (Suntory Ltd.), xylose (Wako Pure Chemical Industries, Ltd.), xylitol (Wako Pure Chemical Industries, Ltd.), sorbitol (Wako Pure Chemical Industries, Ltd.), D-mannitol (Wako Pure Chemical Industries, Ltd.), erythritol (Wako Pure Chemical Industries, Ltd.), maltitol (Hayashibara Biochemical Laboratories, Inc.), sucralose (San-Ei Gen F.F.I., Inc.) or acesulfame K (Wako Pure Chemical Industries, Ltd.) was used as sweetener and administered orally (10 mL/kg) at 6 g/kg, 3 g/kg or 1 g/kg.
In addition, (2S)-2-cyano-1-[trans-4-(dimethylaminocarbonyl)cyclohexylamino]acetylpyrrolidine benzenesulfonate (hereafter referred to as Compound A′) as DPP4 inhibitor (or purified water as a control) was used at 10 mg/kg and administered orally (10 mL/kg).
Blood active GLP-1 level-increasing action was tested for the cases of combined use of DPP4 inhibitor and each type of sweetener in accordance with the method described in (1) above (n=4 to 5 animals per group).
Blood active GLP-1 concentrations (1 hour after dosing) in the groups dosed with both each type of sweetener (6 g/kg, 3 g/kg or 1 g/kg) and Compound A′ (10 mg/kg) were represented as relative values with respect to blood active GLP-1 concentrations (1 hour after dosing) in the group dosed with fructooligosaccharide (6 g/kg) and Compound A′.

Test [4] is described as follows: Body weight-reducing test using DIO mice (3), Example 7. The format is in vivo, mouse. The conditions noted are these: for Body weight gain After 8 days / Body weight gain After 15 days: sweetener in feed at 5 w/w % combined with Compound A′ in feed at 10 mg/100 g, high fat diet-fed C57BL/6J mice, mean ± SEM, n = 7. How it is done: Testing was carried out in the same manner as (1) of Example 3 above. High fat diet-fed, male C57BL/6J mice housed until age 16 weeks were used in the test.
The study animals were used in the test after first grouping according to body weight.
The animals were administered test DPP4 inhibitor and test sweetener in-feed for up to 15 days. Body weights and food intake were measured over time after the start of administration of the test substances.
Sorbitol (Wako Pure Chemical Industries, Ltd.) or erythritol (Wako Pure Chemical Industries, Ltd.) was used as sweetener and each was administered in-feed at 5 w/w %. In addition, Compound A′ was administered as DPP4 inhibitor in-feed at 10 mg/100 g. Body weight reducing effect was tested for the cases of combined use of each of these sweeteners and DPP4 inhibitor in accordance with the method described in (1) above (n=7 animals per group).

The mark [5] stands for this setting: DPP4 inhibitor 10 mg/kg orally combined with acesulfame K 3 g/kg orally.
Where [6] appears, read: Compound A′ alone in feed at 10 mg/100 g.
Where [7] appears, read: sweetener 3 g/kg orally alone (purified water instead of DPP4 inhibitor).
[8] abbreviates: sweetener alone 5 w/w % in-feed.
Where [9] appears, read: sweetener alone in feed at 5 w/w %.
Setting [10] is: sweetener in feed at 5 w/w % combined with Compound A′ in feed at 10 mg/100 g.
Where [11] appears, read: sweetener 3 g/kg orally combined with Compound A′ 10 mg/kg orally.
[12] abbreviates: sweetener 6 g/kg orally combined with Compound A′ 10 mg/kg orally.
The mark [13] stands for this setting: sweetener 5 w/w % combined with Compound A′ 10 mg/100 g in-feed.
Where [14] appears, read: sweetener alone, separate tests.

In the case of `OC[C@H]1O[C@H](O[C@H]2[C@H](O)[C@@H](O)C(O)O[C@@H]2CO)[C@H](O)[C@@H](O)[C@@H]1O` (mixture of isomers) [maltose], in the test with GLP-1, the “blood GLP-1 levels following administration” value is “blood GLP-1 levels are increased”.

For `CN(C)C(=O)[C@H]1CC[C@H](NCC(=O)N2CCC[C@H]2C#N)CC1.O=S(=O)(O)c1ccccc1` (relative stereo) [Compound A′, (2S)-2-cyano-1-[trans-4-(dimethylaminocarbonyl)cyclohexylamino]acetylpyrrolidine benzenesulfonate], the “Increase in AUC of Plasma active GLP-1” value in the test on active GLP-1 in plasma [1] (DPP4 inhibitor 10 mg/kg orally combined with D-mannitol 3 g/kg orally) stood at 170 ± 27 pM·h; with active GLP-1 in plasma [1] (setting [5]), 142 ± 11 pM·h; in the test on active GLP-1 in plasma [1] (DPP4 inhibitor 10 mg/kg orally combined with melibiose 6 g/kg orally) it was 228 ± 32 pM·h. Also, in test [2] (Compound A′ alone 10 mg/100 g in-feed), the “body weight as compared with the control group” value is “no changes in body weight as compared with the control group”. Further, the “Body weight gain after 12 days” value in test [2] (setting [6]) was 0.6 ± 0.1 g. Moreover, the “Body weight gain after 13 days” value in test [2] (setting [6]) was 2.0 ± 0.3 g.

Regarding `CC1=CC(=O)NS(=O)(=O)O1` [Acesulfame K, acesulfame potassium], the “Increase in AUC of Plasma active GLP-1” value with active GLP-1 in plasma [1] (setting [7]) was 51 ± 1 pM·h. In test [2], the “fat mass (g) as compared with the control group” value is on record as “decreased significantly”, the “lean mass (g) in comparison with the control group” value is “no change in lean mass” and the “body weights as compared with the control group” value is “body weights significantly decreased as compared with the control group”. Moreover, the “body weight as compared with the control group” value in test [2] (setting [8]) was “no significant differences as compared with the control group”. Moreover, the “Body weight gain after 12 days” value in test [2] (setting [9]) was -0.5 ± 0.3 g. In test [2] (setting [10]), the “Body weight gain after 12 days” value was -1.0 ± 0.4 g. Also, the “Plasma active GLP-1 concentration (relative value)” value in the test on active GLP-1 in plasma [3] (sweetener 1 g/kg orally combined with Compound A′ 10 mg/kg orally) is reported as 149. The “Plasma active GLP-1 concentration (relative value)” value in the test with active GLP-1 in plasma [3] (setting [11]) is given as 377.

Take `CCC(=O)N1CCN(C2CCC(C)(NCC(=O)N3CCC[C@H]3C#N)CC2)CC1` (stereo partly drawn) [Compound B, (2S)-2-cyano-1-[t-4-(4-propionyl-1-piperazinyl)-1-methyl-r-1-cyclohexylamino]acetyl pyrrolidine]: the “Increase in AUC of Plasma active GLP-1” value in the test on active GLP-1 in plasma [1] (setting [5]) worked out at 153 ± 14 pM·h.

Consider `OC[C@@H](O)[C@@H](O)[C@H](O)[C@H](O)CO` [D-mannitol], for which, in the test with active GLP-1 in plasma [1] (setting [7]), the “Increase in AUC of Plasma active GLP-1” value was 85 ± 1 pM·h. Further, in test [2], the “fat mass (g) as compared with the control group” value is reported as “decreased significantly”, the “lean mass (g) in comparison with the control group” value is “no change in lean mass” and the “body weights as compared with the control group” value is on record as “body weights significantly decreased as compared with the control group”. Further, in test [2] (setting [8]), the “body weight as compared with the control group” value is recorded as “no significant differences as compared with the control group”. In test [2] (setting [9]), the “Body weight gain after 13 days” value was 1.1 ± 0.5 g. In test [2] (setting [10]), the “Body weight gain after 13 days” value worked out at 0.2 ± 0.7 g. In the test with active GLP-1 in plasma [3] (setting [11]), the “Plasma active GLP-1 concentration (relative value)” value is 160. In addition, the “Plasma active GLP-1 concentration (relative value)” value in the test with active GLP-1 in plasma [3] (setting [12]) was 742.

In the case of `OC[C@@H](O)[C@@H](O)CO` [Erythritol, erythritol], the “body weights as compared with the control group” value in test [4] (setting [13]) was “decreases in body weights were observed”; in test [4] (setting [14]), “decreases in body weights were not observed”. The “Body weight gain After 8 days” value in test [4] is recorded as 0.2 ± 0.1 g. In addition, in test [4], the “Body weight gain After 15 days” value turned out to be 0.9 ± 0.3 g. Further, the “Plasma active GLP-1 concentration (relative value)” value with active GLP-1 in plasma [3] (setting [11]) is listed as 147; in the test on active GLP-1 in plasma [3] (setting [12]), 461.

As to `OC[C@H]1O[C@@](CO)(OC[C@@]2(O[C@H]3O[C@H](CO)[C@@H](O)[C@H](O)[C@H]3O)O[C@H](CO)[C@@H](O)[C@@H]2O)[C@@H](O)[C@@H]1O` [Kestose, glucose-1,2-fructose-1,2-fructose], the “Plasma active GLP-1 concentration (relative value)” value in the test with active GLP-1 in plasma [3] (setting [12]) is on record as 166.

Consider `O=C[C@H](O)[C@@H](O)[C@H](O)[C@H](O)CO[C@H]1O[C@H](CO)[C@H](O)[C@H](O)[C@H]1O` [Melibiose, α-D-galactopyranosyl-(1→6)-D-glucose], for which the “Increase in AUC of Plasma active GLP-1” value in the test with active GLP-1 in plasma [1] (sweetener 6 g/kg orally alone (purified water instead of DPP4 inhibitor)) came out at 95 ± 2 pM·h. Moreover, the “body weights as compared with the control group” value in test [2] is on record as “body weights significantly decreased as compared with the control group”. Also, the “body weight as compared with the control group” value in test [2] (setting [8]) is “no significant differences as compared with the control group”. Besides, the “Body weight gain after 13 days” value in test [2] (setting [9]) was 2.2 ± 0.2 g; in test [2] (setting [10]) it was 0.9 ± 0.4 g. Also, the “Plasma active GLP-1 concentration (relative value)” value in the test with active GLP-1 in plasma [3] (setting [12]) was determined as 454.

Regarding `OC[C@H]1O[C@H](OC[C@H]2O[C@H](O[C@]3(CO)O[C@H](CO)[C@@H](O)[C@@H]3O)[C@H](O)[C@@H](O)[C@@H]2O)[C@H](O)[C@@H](O)[C@H]1O` [Raffinose, β-D-fructofuranosyl α-D-galactopyranosyl-(1→6)-α-D-glucopyranoside], the “Plasma active GLP-1 concentration (relative value)” value in the test on active GLP-1 in plasma [3] (setting [12]) was found to be 77.

As to `OC[C@@H](O)[C@@H](O)[C@H](O)[C@@H](O)CO` [Sorbitol, sorbitol], the “body weights as compared with the control group” value is recorded as “decreases in body weights were observed” in test [4] (setting [13]) and “decreases in body weights were not observed” in test [4] (setting [14]). The “Body weight gain After 8 days” value in test [4] was -0.7 ± 0.4 g. For the same molecule, the “Body weight gain After 15 days” value in test [4] worked out at 0.8 ± 0.3 g. The “Plasma active GLP-1 concentration (relative value)” value in the test on active GLP-1 in plasma [3] (setting [11]) worked out at 286; in the test with active GLP-1 in plasma [3] (setting [12]), 863.

Take `OC[C@H]1O[C@H](O[C@]2(CCl)O[C@H](CCl)[C@@H](O)[C@@H]2O)[C@H](O)[C@@H](O)[C@H]1Cl` [Sucralose, sucralose]: the “Plasma active GLP-1 concentration (relative value)” value with active GLP-1 in plasma [3] (setting [12]) was determined as 166.
